Patent US8394592B2, “Methods for assessing cancer susceptibility to carcinogens in tobacco products” (The Board of Regents of the University of Texas System, priority 2006, dated 2013)

Test system: peripheral blood lymphocytes
Experiment: Cytokinesis-block micronucleus (CBMN) assay, NNK-treated lymphocyte cultures of lung cancer cases and controls
Format: cell-based, human
Conditions: 0.24 mM NNK
Method: The CBMN test was performed using the cytochalasin B technique described by Fenech and Morley (22) and following recommendations from The International Collaborative Project on Micronucleus Frequency in Human Populations (HUMN Project) to measure MN, NPBs and NBUDs in untreated cells and NNK-treated cells (27). Duplicate lymphocyte cultures were prepared for each study subject. Each culture contained 2.0×10^6 cells in 5 mL RPMI 1640 medium supplemented with 100 U/mL penicillin, 100 μg/mL streptomycin, 10% fetal bovine serum, and 2 mM L-glutamine (Gibco-Invitrogen, Carlsbad, Calif.) and 1% phytohemagglutinin (Remel, Lenexa, Kans.). For the cultures treated with NNK, 24 hours after initiation, the PBLs were centrifuged and the supernatant growth medium was removed and reserved. The PBLs were resuspended in 5 mL of serum-free RPMI 1640 medium supplemented with 0.24 mM NNK (a dose previously used by us and others (23-26) (CAS No. 64091-91-4, National Cancer Institute, Midwest Carcinogen Repository, Kansas City, Mo.; purity>98%) and incubated at 37° C. in the presence of 5% CO2 for 2 hours.
Next, the PBLs were washed twice with serum-free RPMI 1640, transferred to clean tubes and re-incubated for […] in the reserved supernatant. At 44 hours after initiation, cells were blocked in cytokinesis by adding cytochalasin B (Sigma, St. Louis, Mo.; final concentration 4 µg/mL). Similarly, cultures for the determination of spontaneous damage (untreated cells) were handled in the same manner, with the exception of treatment with NNK. The total incubation time for all cultures was 72 hours. After incubation, the cells were fixed in 3:1 methanol:glacial acetic acid, dropped onto clean microscopic slides, air-dried and stained with Giemsa stain. For each sample, 1000 binucleated cells were scored blindly using a Nikon E-400 light optical microscope following the scoring criteria outlined by HUMN Project (2,22,27); the numbers of MN, NPBs, and NBUDs per 1000 binucleated cells were recorded. For quality control, 20% of the slides were randomly selected and blindly rescored and the results compared with the original scoring.

[1] = Case, History of Alcohol Use No
[2] = Case, History of Alcohol Use Yes

In the case of `CN(CCCC(=O)c1cccnc1)N=O` [NNK, 4-(methylnitrosamino)-1-(3-pyridyl)-1-butanone], the “NNK-induced MN, Mean ± SE” value (Case, Age > 62) is reported as 4.54 ± 0.22 per 1000 binucleated cells, the “NNK-induced MN, Median” value (Case, Age > 62) is reported as 4.0 per 1000 binucleated cells and the “NNK-induced NBUDs, Mean ± SE” value (Case, Age > 62) is reported as 0.90 ± 0.17 per 1000 binucleated cells. The “NNK-induced NBUDs, Median” value (Case, Age > 62) was 1.0 per 1000 binucleated cells, the “NNK-induced NPBs, Mean ± SE” value (Case, Age > 62) was 8.15 ± 0.33 per 1000 binucleated cells and the “NNK-induced NPBs, Median” value (Case, Age > 62) was 8.0 per 1000 binucleated cells. For the same molecule, the “NNK-induced MN, Mean ± SE” value (Case, Age ≦ 62) was 4.22 ± 0.11 per 1000 binucleated cells, the “NNK-induced MN, Median” value (Case, Age ≦ 62) was 4.0 per 1000 binucleated cells and the “NNK-induced NBUDs, Mean ± SE” value (Case, Age ≦ 62) was 1.12 ± 0.11 per 1000 binucleated cells. The “NNK-induced NBUDs, Median” value (Case, Age ≦ 62) was 1.0 per 1000 binucleated cells, the “NNK-induced NPBs, Mean ± SE” value (Case, Age ≦ 62) was 8.11 ± 0.23 per 1000 binucleated cells and the “NNK-induced NPBs, Median” value (Case, Age ≦ 62) was 8.0 per 1000 binucleated cells. For the same molecule, the “NNK-induced MN, Mean ± SE” value (Case, Females) was 4.19 ± 0.17 per 1000 binucleated cells, the “NNK-induced MN, Median” value (Case, Females) was 4.0 per 1000 binucleated cells and the “NNK-induced NBUDs, Mean ± SE” value (Case, Females) was 1.07 ± 0.12 per 1000 binucleated cells. The “NNK-induced NBUDs, Median” value (Case, Females) was 1.0 per 1000 binucleated cells, the “NNK-induced NPBs, Mean ± SE” value (Case, Females) was 8.24 ± 0.32 per 1000 binucleated cells and the “NNK-induced NPBs, Median” value (Case, Females) was 8.0 per 1000 binucleated cells. The “NNK-induced MN, Mean ± SE” value [1] was 4.26 ± 0.14 per 1000 binucleated cells, the “NNK-induced MN, Median” value [1] was 4.00 per 1000 binucleated cells and the “NNK-induced NBUDs, Mean ± SE” value [1] was 1.09 ± 0.18 per 1000 binucleated cells. The “NNK-induced NBUDs, Median” value [1] was 1.00 per 1000 binucleated cells, the “NNK-induced NPBs, Mean ± SE” value [1] was 8.04 ± 0.32 per 1000 binucleated cells and the “NNK-induced NPBs, Median” value [1] was 8.00 per 1000 binucleated cells. For the same molecule, the “NNK-induced MN, Mean ± SE” value [2] was 4.37 ± 0.14 per 1000 binucleated cells, the “NNK-induced MN, Median” value [2] was 4.00 per 1000 binucleated cells and the “NNK-induced NBUDs, Mean ± SE” value [2] was 1.04 ± 0.11 per 1000 binucleated cells. For the same molecule, the “NNK-induced NBUDs, Median” value [2] was 1.00 per 1000 binucleated cells, the “NNK-induced NPBs, Mean ± SE” value [2] was 8.14 ± 0.24 per 1000 binucleated cells and the “NNK-induced NPBs, Median” value [2] was 8.00 per 1000 binucleated cells. The “NNK-induced MN, Mean ± SE” value (Case, Males) was 4.37 ± 0.13 per 1000 binucleated cells, the “NNK-induced MN, Median” value (Case, Males) was 4.0 per 1000 binucleated cells and the “NNK-induced NBUDs, Mean ± SE” value (Case, Males) was 1.07 ± 0.11 per 1000 binucleated cells. The “NNK-induced NBUDs, Median” value (Case, Males) was 1.0 per 1000 binucleated cells, the “NNK-induced NPBs, Mean ± SE” value (Case, Males) was 8.07 ± 0.23 per 1000 binucleated cells and the “NNK-induced NPBs, Median” value (Case, Males) was 8.0 per 1000 binucleated cells. The “NNK-induced MN, Mean ± SE” value (Case, Overall) was 4.32±0.10 per 1000 binucleated cells, the “NNK-induced MN, Median” value (Case, Overall) was 4.0 per 1000 binucleated cells and the “NNK-induced NBUDs, Mean ± SE” value (Case, Overall) was 1.07±0.09 per 1000 binucleated cells. The “NNK-induced NBUDs, Median” value (Case, Overall) was 1.0 per 1000 binucleated cells, the “NNK-induced NPBs, Mean ± SE” value (Case, Overall) was 8.12±0.19 per 1000 binucleated cells and the “NNK-induced NPBs, Median” value (Case, Overall) was 8.0 per 1000 binucleated cells. The “NNK-induced MN, Mean ± SE” value (Case, Years smoked > 32) was 4.33 ± 0.10 per 1000 binucleated cells, the “NNK-induced MN, Median” value (Case, Years smoked > 32) was 4.0 per 1000 binucleated cells and the “NNK-induced NBUDs, Mean ± SE” value (Case, Years smoked > 32) was 1.08 ± 0.01 per 1000 binucleated cells. The “NNK-induced NBUDs, Median” value (Case, Years smoked > 32) was 1.0 per 1000 binucleated cells, the “NNK-induced NPBs, Mean ± SE” value (Case, Years smoked > 32) was 8.07 ± 0.19 per 1000 binucleated cells and the “NNK-induced NPBs, Median” value (Case, Years smoked > 32) was 8.0 per 1000 binucleated cells. For the same molecule, the “NNK-induced MN, Mean ± SE” value (Case, Years smoked ≦ 32) was 3.63 ± 0.32 per 1000 binucleated cells, the “NNK-induced MN, Median” value (Case, Years smoked ≦ 32) was 4.0 per 1000 binucleated cells and the “NNK-induced NBUDs, Mean ± SE” value (Case, Years smoked ≦ 32) was 1.13 ± 0.44 per 1000 binucleated cells. For the same molecule, the “NNK-induced NBUDs, Median” value (Case, Years smoked ≦ 32) was 1.0 per 1000 binucleated cells, the “NNK-induced NPBs, Mean ± SE” value (Case, Years smoked ≦ 32) was 9.25 ± 0.96 per 1000 binucleated cells and the “NNK-induced NPBs, Median” value (Case, Years smoked ≦ 32) was 8.3 per 1000 binucleated cells. The “NNK-induced MN, Mean ± SE” value (Control, Age > 62) was 2.75 ± 0.15 per 1000 binucleated cells, the “NNK-induced MN, Median” value (Control, Age > 62) was 3.0 per 1000 binucleated cells and the “NNK-induced NBUDs, Mean ± SE” value (Control, Age > 62) was 0.10 ± 0.05 per 1000 binucleated cells. For the same molecule, the “NNK-induced NBUDs, Median” value (Control, Age > 62) was 0.0 per 1000 binucleated cells, the “NNK-induced NPBs, Mean ± SE” value (Control, Age > 62) was 2.35 ± 0.14 per 1000 binucleated cells and the “NNK-induced NPBs, Median” value (Control, Age > 62) was 2.0 per 1000 binucleated cells. The “NNK-induced MN, Mean ± SE” value (Control, Age ≦ 62) was 2.58 ± 0.14 per 1000 binucleated cells, the “NNK-induced MN, Median” value (Control, Age ≦ 62) was 2.0 per 1000 binucleated cells and the “NNK-induced NBUDs, Mean ± SE” value (Control, Age ≦ 62) was 0.13 ± 0.04 per 1000 binucleated cells. The “NNK-induced NBUDs, Median” value (Control, Age ≦ 62) was 0.0 per 1000 binucleated cells, the “NNK-induced NPBs, Mean ± SE” value (Control, Age ≦ 62) was 2.41 ± 0.11 per 1000 binucleated cells and the “NNK-induced NPBs, Median” value (Control, Age ≦ 62) was 2.0 per 1000 binucleated cells. For the same molecule, the “NNK-induced MN, Mean ± SE” value (Control, Females) was 2.51 ± 0.23 per 1000 binucleated cells, the “NNK-induced MN, Median” value (Control, Females) was 2.0 per 1000 binucleated cells and the “NNK-induced NBUDs, Mean ± SE” value (Control, Females) was 0.11 ± 0.05 per 1000 binucleated cells. For the same molecule, the “NNK-induced NBUDs, Median” value (Control, Females) was 1.0 per 1000 binucleated cells.
